Measurements taken from article PMC5053573, “Structure-Based Design of Tetrahydroisoquinoline-7-carboxamides as Selective Discoidin Domain Receptor 1 (DDR1) Inhibitors” (Journal of Medicinal Chemistry, 2016).

Key:
Experiment in all cases: biochemical
Details in all cases: read-out: %Ctrl @ 1000nM
[1] = target: ABL1(E255K)-phosphorylated (Homo sapiens, UniProt P00519, E255K)
[2] = target: ABL1(F317L)-nonphosphorylated (Homo sapiens, UniProt P00519, F317L)
[3] = target: ABL1(T315I)-nonphosphorylated (Homo sapiens, UniProt P00519, T315I)
[4] = target: ALK(L1196M) (Homo sapiens, UniProt Q9UM73, L1196M)
Sequence of ALK(L1196M) (Q9UM73 whole entry L1196M): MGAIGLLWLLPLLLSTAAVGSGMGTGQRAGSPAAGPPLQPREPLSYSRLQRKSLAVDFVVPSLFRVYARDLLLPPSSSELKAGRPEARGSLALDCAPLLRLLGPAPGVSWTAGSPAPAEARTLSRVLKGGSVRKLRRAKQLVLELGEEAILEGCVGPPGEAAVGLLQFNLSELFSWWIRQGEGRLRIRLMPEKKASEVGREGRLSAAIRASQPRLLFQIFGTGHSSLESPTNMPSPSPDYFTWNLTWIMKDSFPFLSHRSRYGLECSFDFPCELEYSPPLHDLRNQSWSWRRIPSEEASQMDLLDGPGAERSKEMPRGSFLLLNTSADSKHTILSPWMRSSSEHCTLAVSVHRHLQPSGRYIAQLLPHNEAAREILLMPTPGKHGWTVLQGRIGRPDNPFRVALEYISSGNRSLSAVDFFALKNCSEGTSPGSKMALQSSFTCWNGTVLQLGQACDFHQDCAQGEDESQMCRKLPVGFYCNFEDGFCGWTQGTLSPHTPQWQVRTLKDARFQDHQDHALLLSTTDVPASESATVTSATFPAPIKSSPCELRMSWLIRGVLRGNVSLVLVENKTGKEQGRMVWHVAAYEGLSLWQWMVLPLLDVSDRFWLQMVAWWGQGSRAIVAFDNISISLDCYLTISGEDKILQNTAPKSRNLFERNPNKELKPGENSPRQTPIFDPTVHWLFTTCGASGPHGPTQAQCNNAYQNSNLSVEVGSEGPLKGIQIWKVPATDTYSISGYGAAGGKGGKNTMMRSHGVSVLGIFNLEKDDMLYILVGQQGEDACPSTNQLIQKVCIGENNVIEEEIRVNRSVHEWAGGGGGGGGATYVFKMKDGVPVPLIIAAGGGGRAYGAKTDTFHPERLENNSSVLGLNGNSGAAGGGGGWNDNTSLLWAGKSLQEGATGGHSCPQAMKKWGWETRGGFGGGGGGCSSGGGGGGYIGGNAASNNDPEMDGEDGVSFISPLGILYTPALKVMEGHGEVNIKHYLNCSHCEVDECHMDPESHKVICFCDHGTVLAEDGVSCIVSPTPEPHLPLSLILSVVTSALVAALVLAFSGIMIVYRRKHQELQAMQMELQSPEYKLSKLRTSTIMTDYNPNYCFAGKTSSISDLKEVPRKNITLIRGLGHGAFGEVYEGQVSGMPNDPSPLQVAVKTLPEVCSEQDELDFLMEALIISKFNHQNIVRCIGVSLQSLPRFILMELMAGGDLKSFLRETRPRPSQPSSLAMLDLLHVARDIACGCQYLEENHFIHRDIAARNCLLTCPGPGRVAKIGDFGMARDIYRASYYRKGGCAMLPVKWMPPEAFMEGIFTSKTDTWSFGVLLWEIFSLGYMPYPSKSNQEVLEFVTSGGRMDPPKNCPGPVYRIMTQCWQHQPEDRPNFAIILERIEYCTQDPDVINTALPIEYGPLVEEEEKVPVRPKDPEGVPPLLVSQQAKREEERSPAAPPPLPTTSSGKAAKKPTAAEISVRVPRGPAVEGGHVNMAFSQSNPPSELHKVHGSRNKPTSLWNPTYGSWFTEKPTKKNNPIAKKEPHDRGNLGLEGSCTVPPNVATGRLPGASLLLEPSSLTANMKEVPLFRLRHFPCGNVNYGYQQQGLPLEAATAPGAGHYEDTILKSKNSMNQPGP

[5] = target: AURKA (Homo sapiens, UniProt O14965)
[6] = target: CAMK2G (Homo sapiens, UniProt Q13555)
[7] = target: CSF1R-autoinhibited (Homo sapiens, UniProt P07333)
[8] = target: CSNK2A2 (Homo sapiens, UniProt P19784)
[9] = target: T1, DLK (Homo sapiens, UniProt Q12852)
T1 construct: gene MAP3K12

[10] = target: T2, DRAK2 (Homo sapiens, UniProt O94768)
T2 construct: gene STK17B

[11] = target: EPHA8 (Homo sapiens, UniProt P29322)
[12] = target: T3, ERK1 (Homo sapiens, UniProt P27361)
T3 construct: gene MAPK3
T3 sequence (P27361 whole entry): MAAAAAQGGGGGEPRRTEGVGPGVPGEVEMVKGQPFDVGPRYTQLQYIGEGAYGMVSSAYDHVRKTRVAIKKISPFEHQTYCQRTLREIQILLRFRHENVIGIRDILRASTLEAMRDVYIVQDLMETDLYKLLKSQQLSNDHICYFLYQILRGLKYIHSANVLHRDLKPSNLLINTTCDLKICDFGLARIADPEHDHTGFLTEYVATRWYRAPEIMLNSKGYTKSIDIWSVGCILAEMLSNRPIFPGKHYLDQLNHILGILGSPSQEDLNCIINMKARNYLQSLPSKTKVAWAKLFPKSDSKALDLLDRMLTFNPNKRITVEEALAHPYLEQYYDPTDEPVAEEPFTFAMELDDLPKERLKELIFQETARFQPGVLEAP

[13] = target: T4, ERK4 (Homo sapiens, UniProt P31152)
T4 construct: gene MAPK4

[14] = target: FLT3 (Homo sapiens, UniProt P36888)
[15] = target: FLT3(D835V) (Homo sapiens, UniProt P36888, D835V)
[16] = target: HCK (Homo sapiens, UniProt P08631)
Sequence of HCK (P08631 whole entry): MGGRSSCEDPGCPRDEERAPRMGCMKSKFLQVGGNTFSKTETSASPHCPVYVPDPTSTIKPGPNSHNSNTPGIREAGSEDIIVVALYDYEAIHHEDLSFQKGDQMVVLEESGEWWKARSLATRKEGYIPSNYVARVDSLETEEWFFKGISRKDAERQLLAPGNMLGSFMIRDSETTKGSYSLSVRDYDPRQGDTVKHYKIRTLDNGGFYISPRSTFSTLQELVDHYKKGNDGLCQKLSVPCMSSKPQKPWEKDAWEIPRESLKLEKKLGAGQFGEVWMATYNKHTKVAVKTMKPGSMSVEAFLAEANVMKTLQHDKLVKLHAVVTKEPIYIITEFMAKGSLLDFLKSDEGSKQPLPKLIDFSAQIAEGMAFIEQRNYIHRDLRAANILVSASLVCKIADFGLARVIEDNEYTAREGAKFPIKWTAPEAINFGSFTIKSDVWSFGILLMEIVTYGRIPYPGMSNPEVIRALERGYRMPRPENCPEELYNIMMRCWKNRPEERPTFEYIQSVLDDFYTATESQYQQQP

[17] = target: MAP3K2 (Homo sapiens, UniProt Q9Y2U5)
[18] = target: MKNK2 (Homo sapiens, UniProt Q9HBH9)
[19] = target: MST1R (Homo sapiens, UniProt Q04912)
[20] = target: MYO3A (Homo sapiens, UniProt Q8NEV4)
[21] = target: NEK4 (Homo sapiens, UniProt P51957)
Sequence of NEK4 (P51957 whole entry): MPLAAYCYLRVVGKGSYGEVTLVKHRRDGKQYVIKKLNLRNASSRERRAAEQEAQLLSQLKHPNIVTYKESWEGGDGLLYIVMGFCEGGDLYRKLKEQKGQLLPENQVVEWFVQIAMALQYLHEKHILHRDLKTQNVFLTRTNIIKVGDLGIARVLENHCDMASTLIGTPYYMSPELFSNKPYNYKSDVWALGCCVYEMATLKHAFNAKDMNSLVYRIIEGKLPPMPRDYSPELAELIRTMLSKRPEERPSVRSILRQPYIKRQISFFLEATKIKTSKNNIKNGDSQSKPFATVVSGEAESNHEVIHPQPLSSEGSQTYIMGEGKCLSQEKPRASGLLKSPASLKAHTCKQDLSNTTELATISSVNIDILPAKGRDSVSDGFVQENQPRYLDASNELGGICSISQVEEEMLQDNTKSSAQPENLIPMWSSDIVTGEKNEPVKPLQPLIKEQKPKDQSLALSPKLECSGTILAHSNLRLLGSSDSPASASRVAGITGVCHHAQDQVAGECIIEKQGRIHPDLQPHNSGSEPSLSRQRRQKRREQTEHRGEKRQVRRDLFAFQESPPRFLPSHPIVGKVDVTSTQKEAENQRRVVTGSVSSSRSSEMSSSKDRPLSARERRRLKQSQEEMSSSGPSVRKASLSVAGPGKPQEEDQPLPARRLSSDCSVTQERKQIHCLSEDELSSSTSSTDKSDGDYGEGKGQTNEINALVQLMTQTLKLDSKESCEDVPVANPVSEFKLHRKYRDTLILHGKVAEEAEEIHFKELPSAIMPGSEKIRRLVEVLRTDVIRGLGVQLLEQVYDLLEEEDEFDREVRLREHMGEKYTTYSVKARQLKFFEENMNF

[22] = target: NEK5 (Homo sapiens, UniProt Q6P3R8)
Sequence of NEK5 (Q6P3R8 whole entry): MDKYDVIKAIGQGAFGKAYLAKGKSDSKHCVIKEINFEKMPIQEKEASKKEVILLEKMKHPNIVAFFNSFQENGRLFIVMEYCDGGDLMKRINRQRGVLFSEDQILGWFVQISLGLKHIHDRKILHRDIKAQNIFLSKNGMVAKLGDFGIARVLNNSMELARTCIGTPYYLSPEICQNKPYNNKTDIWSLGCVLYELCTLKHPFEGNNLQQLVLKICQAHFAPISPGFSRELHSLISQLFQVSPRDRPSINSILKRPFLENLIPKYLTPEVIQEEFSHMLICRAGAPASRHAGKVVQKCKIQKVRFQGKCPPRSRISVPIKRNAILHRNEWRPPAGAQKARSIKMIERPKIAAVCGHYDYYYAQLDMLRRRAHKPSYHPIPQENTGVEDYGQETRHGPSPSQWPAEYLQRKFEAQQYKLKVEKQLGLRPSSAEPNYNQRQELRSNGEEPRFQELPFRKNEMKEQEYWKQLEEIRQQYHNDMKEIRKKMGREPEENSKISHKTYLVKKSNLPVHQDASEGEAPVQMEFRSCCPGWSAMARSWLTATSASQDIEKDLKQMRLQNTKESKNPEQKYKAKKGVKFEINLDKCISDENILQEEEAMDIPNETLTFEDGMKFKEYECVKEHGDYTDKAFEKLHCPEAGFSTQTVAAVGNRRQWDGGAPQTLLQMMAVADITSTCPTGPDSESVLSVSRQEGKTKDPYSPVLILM

[23] = target: T5, NIK (Homo sapiens, UniProt Q99558)
T5 construct: gene MAP3K14

[24] = target: T6, PCTK1 (Homo sapiens, UniProt Q00536)
T6 construct: gene CDK16

[25] = target: PIK3C2B (Homo sapiens, UniProt O00750)
[26] = target: PIK3CA(I800L) (Homo sapiens, UniProt P42336, I800L)
[27] = target: PRKD1 (Homo sapiens, UniProt Q15139)
[28] = target: RET(V804L) (Homo sapiens, UniProt P07949, V804L)
[29] = target: RIPK2 (Homo sapiens, UniProt O43353)
Sequence of RIPK2 (O43353 whole entry): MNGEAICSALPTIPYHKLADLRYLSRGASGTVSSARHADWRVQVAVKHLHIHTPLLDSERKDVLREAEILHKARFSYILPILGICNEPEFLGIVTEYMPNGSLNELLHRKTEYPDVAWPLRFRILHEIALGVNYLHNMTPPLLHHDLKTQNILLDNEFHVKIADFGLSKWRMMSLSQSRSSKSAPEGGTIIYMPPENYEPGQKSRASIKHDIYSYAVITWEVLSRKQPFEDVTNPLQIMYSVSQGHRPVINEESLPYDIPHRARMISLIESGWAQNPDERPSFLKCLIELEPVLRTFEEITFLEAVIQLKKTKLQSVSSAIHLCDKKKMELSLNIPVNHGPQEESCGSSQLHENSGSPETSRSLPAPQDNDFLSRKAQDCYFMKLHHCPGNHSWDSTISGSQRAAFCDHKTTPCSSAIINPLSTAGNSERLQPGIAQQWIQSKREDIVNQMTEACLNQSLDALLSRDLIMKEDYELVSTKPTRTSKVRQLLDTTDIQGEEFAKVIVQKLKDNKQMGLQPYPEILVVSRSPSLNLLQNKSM

[30] = target: RIPK4 (Homo sapiens, UniProt P57078)
[31] = target: ROCK1 (Homo sapiens, UniProt Q13464)
[32] = target: RPS6KA5(Kin.Dom.1-N-terminal) (Homo sapiens, UniProt O75582)
[33] = target: SRPK1 (Homo sapiens, UniProt Q96SB4)
[34] = target: TLK2 (Homo sapiens, UniProt Q86UE8)
[35] = target: T7, p38-gamma (Homo sapiens, UniProt P53778)
T7 construct: gene MAPK12
T7 sequence (P53778 whole entry): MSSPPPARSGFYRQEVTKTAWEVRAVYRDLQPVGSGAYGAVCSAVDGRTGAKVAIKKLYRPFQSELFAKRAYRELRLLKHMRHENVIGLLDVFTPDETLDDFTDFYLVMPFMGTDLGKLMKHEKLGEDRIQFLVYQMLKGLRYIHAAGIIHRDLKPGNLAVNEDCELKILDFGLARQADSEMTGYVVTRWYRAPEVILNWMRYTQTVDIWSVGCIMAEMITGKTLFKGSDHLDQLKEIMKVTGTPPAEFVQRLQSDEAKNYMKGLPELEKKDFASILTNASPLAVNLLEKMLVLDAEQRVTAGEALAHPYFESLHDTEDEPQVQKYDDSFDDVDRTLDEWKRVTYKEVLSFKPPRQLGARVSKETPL

Cc1cn(-c2cc(NC(=O)c3ccc4c(c3)CN(c3cncnc3)C[C@@H]4C)cc(C(F)(F)F)c2)cn1 [Compound 6j]
remaining activity at 1 µM [1]: 56%
remaining activity at 1 µM [2]: 38%
remaining activity at 1 µM [3]: 100%
remaining activity at 1 µM [4]: 100%
remaining activity at 1 µM [5]: 96%
remaining activity at 1 µM [6]: 63%
remaining activity at 1 µM [7]: 93%
remaining activity at 1 µM [8]: 93%
remaining activity at 1 µM [9]: 100%
remaining activity at 1 µM [10]: 97%
remaining activity at 1 µM [11]: 21%
remaining activity at 1 µM [12]: 95%
remaining activity at 1 µM [13]: 93%
remaining activity at 1 µM [14]: 56%
remaining activity at 1 µM [15]: 48%
remaining activity at 1 µM [16]: 86%
remaining activity at 1 µM [17]: 92%
remaining activity at 1 µM [18]: 100%
remaining activity at 1 µM [19]: 97%
remaining activity at 1 µM [20]: 93%
remaining activity at 1 µM [21]: 98%
remaining activity at 1 µM [22]: 95%
remaining activity at 1 µM [23]: 100%
remaining activity at 1 µM [24]: 100%
remaining activity at 1 µM [25]: 100%
remaining activity at 1 µM [26]: 100%
remaining activity at 1 µM [27]: 95%
remaining activity at 1 µM [28]: 94%
remaining activity at 1 µM [29]: 80%
remaining activity at 1 µM [30]: 100%
remaining activity at 1 µM [31]: 100%
remaining activity at 1 µM [32]: 97%
remaining activity at 1 µM [33]: 100%
remaining activity at 1 µM [34]: 98%
remaining activity at 1 µM [35]: 79%
